{"source": "patent US20120064008A1", "about": "“COMPOSITIONS FOR THE TREATMENT OF METASTATIC CANCER AND METHODS OF USE THEREOF” (priority 2009, published 2012)", "key": {"PC-3TxR cells": {"tested_on": "PC-3TxR cells", "assay": "Subcutaneous PC-3TxR tumors in nude mice", "type": "in vivo", "conditions": "10 mg/kg three times a week for 3 weeks", "method": "PC-3TxR cells were inoculated subcutaneously in the flanks of the nude mice. When the tumors reached approximately 100 mm^3 in size, the mice were treated with vehicle, paclitaxel (10 mg/kg), fenbendazole (100 mg/kg) or albendazole (100 mg/kg) three times a week for 3 weeks. These benzimidazoles were prepared in DNTC and diluted with saline prior to injection.\nPC-3TxR cells were inoculated subcutaneously in the flanks of the nude mice. When the tumors reached approximately 100 mm3 in size, the mice were treated with vehicle, paclitaxel (10 mg/kg), fenbendazole (100 mg/kg) or albendazole (100 mg/kg) three times a week for 3 weeks. These benzimidazoles were prepared in DNTC and diluted with saline prior to injection."}, "PC-3M cells": {"tested_on": "PC-3M cells", "assay": "Normalized mitotic index (histone H3 phospho-Serine-28), PC-3M", "type": "cell-based", "conditions": "Homo sapiens, at 1 μM, normalized against vehicle-treated cells, read-out: Normalized mitotic index PC-3M", "text": "(§1) The mitotic index for each agent was normalized against those obtained from vehicle-treated cells, and compared with the activity of paclitaxel, a known inducer of mitotic arrest."}, "PC3-TR cells [1]": {"tested_on": "PC3-TR cells", "assay": "Normalized mitotic index, PC3-TR", "type": "cell-based, human", "conditions": "100 nM"}, "DU145 cells [2]": {"tested_on": "DU145 cells", "assay": "% apoptotic cells, DU145", "type": "cell-based, human", "conditions": "100 nM"}, "[3]": {"tested_on": "paclitaxel-resistant DU145-TR prostate cancer cells", "assay": "Cyquant cell viability assay, DU145-TR", "type": "cell-based, human", "conditions": "72 hours", "protocol": "(§2) The cytotoxic effects of paclitaxel, fenbendazole, and albendazole were compared in paclitaxel-resistant PC3-TR and DU145-TR prostate cancer cells with their paclitaxel-sensitive counterparts, PC3 and DU145 cells. Cells were treated for 72 hours with vehicle, paclitaxel, fenbendazole or albendazole in various doses. Cell viability was measured using Cyquant assay, and percent control was calculated by dividing the fluorescent reading from drug-treated cells with those from vehicle-treated cells, indicating percentage of cell survival."}, "PC3 cells [4]": {"tested_on": "PC3 cells", "assay": "% apoptotic cells, PC3", "type": "cell-based, human", "conditions": "100 nM"}, "PC-3MLN4 cells": {"tested_on": "PC-3MLN4 cells", "assay": "Normalized mitotic index (histone H3 phospho-Serine-28), PC-3MLN4", "type": "cell-based", "conditions": "Homo sapiens, at 1 μM; normalized against vehicle-treated cells; read-out: Normalized mitotic index PC-3MLN4", "text": "as §1"}, "AT6.1 cells": {"tested_on": "AT6.1 cells", "assay": "Normalized mitotic index (histone H3 phospho-Serine-28), AT6.1", "type": "cell-based", "conditions": "Rattus norvegicus, at 1 μM; normalized against vehicle-treated cells; read-out: Normalized mitotic index AT6.1", "text": "as §1"}, "DU145 cells [5]": {"tested_on": "DU145 cells", "assay": "Normalized mitotic index, DU145", "type": "cell-based, human", "conditions": "100 nM"}, "[6]": {"tested_on": "paclitaxel-resistant PC3-TR prostate cancer cells", "assay": "Cyquant cell viability assay, PC3-TR", "type": "cell-based, human", "conditions": "72 hours", "protocol": "as §2"}, "PC3 cells [7]": {"tested_on": "PC3 cells", "assay": "Normalized mitotic index, PC3", "type": "cell-based, human", "conditions": "100 nM"}, "[8]": {"assay": "Combination with paclitaxel, Cyquant cell growth inhibition, CompuSyn median-dose effect analysis", "type": "cell-based", "conditions": "alone or in combination, read-out: Dose Tax", "protocol": "Cell growth inhibition assays were performed using Cyquant reagent as described above. Drug interactions were quantitated by median-dose effect analysis and combination index values as well as dose reduction index were derived using CompuSyn software (ComboSyn, Inc.), as described previously in the literature. CI values of <1, =1, and >1 indicate synergism, additivity and antagonism between the drugs, respectively.\nAll benzimidazole drugs were prepared using the combination carrier and diluted with culture medium prior to treatment."}, "[9]": {"tested_on": "AT6.1 Dunning rat prostate carcinoma", "assay": "Survival in intravenous AT6.1 Dunning rat prostate carcinoma lung metastasis model", "type": "in vivo, nu/nu mice", "conditions": "10 mg/kg three times a week", "protocol": "Many anti-tumor drugs are tested only for their ability to prevent primary tumor growth or to prevent the dissemination of metastatic cells. To accomplish this, the drug is usually administered shortly after the primary tumor is established. […] The benzimidazoles described herein were evaluated in an experimental metastases model in the lungs of nude mice following tail-vein injection of Dunning rat AT6.1 prostate carcinoma. […] In order to achieve greater bioavailability, we first solubilized benzimidazoles in DNTC formulation and then diluted with saline prior to injection.\nInbred male nu/nu mice age 6-8 weeks were obtained from Massachusetts General Hospital (Boston, Mass.). The mice were virus antibody free, age and weight matched for experimental use and fed with a balanced rodent diet ad libitum. AT6.1 Dunning rat prostate cells were maintained as described above. 1×10^4 log-phase cells were injected via tail vein in 0.1 mL Hanks solution. Vehicle or drug treatment was started on day 5 post inoculation and given three times a week (Monday, Wednesday and Friday) via intraperitoneal injection in 0.5 mL volume. Benzimidazole drugs were prepared in the combination carrier [DMSO (12.5%), NMP (37.5%), TWEEN®-80 (25%) and CrEL (25%)] and diluted in saline. Vehicle control was prepared by diluting the combination carrier with saline.\nDuring the course of treatment, the mice were monitored for toxicity by measuring body weight. […] Animals were euthanized with CO2 and tissues were collected for further analysis. The animals and experiments used in these studies were approved by the institutional animal care committee according to Children's Hospital Boston ARCH guidelines.\nTo distinguish differences in survival between these groups, the percent increase in life span (ILS %), defined as the percent increase in the mean time to death of drug-treated animals over the corresponding time to death for vehicle-treated mice, was calculated."}, "DU145-TR cells [10]": {"tested_on": "DU145-TR cells", "assay": "Normalized mitotic index, DU145-TR", "type": "cell-based, human", "conditions": "100 nM"}, "DU145-TR cells [11]": {"tested_on": "DU145-TR cells", "assay": "% apoptotic cells, DU145-TR", "type": "cell-based, human", "conditions": "100 nM"}, "PC3-TR cells [12]": {"tested_on": "PC3-TR cells", "assay": "% apoptotic cells, PC3-TR", "type": "cell-based, human", "conditions": "100 nM"}}, "note": "Like-named read-outs stand apart in the source and are kept apart here."}
{"smiles": "CC(=O)O[C@H]1C(=O)[C@@]2(C)[C@H]([C@H](OC(=O)c3ccccc3)[C@]3(O)C[C@H](OC(=O)[C@H](O)[C@@H](NC(=O)c4ccccc4)c4ccccc4)C(C)=C1C3(C)C)[C@]1(OC(C)=O)CO[C@@H]1C[C@@H]2O", "note": "[Paclitaxel]", "values": [{"measurement": "growth of PC-3TxR tumors compared to the vehicle treated group", "setting": "PC-3TxR cells", "value": "significantly greater"}, {"measurement": "fold induction at 1 µM", "setting": "PC-3M cells", "value": 2.43}, {"measurement": "Normalized mitotic index (6 hours) PC3-TR", "setting": "PC3-TR cells [1]", "value": 1.56}, {"measurement": "% Apoptotic cells (72 hours) DU145", "setting": "DU145 cells [2]", "value": 37.3, "unit": "%"}, {"measurement": "cytotoxic effect against DU145-TR (DU-145TxR)", "setting": "[3]", "value": "refractory"}, {"measurement": "cytotoxic effect against DU145-TR (DU-145TxR)", "setting": "[3]; listed as taxol", "value": "less effective"}, {"measurement": "% Apoptotic cells (72 hours) PC3", "setting": "PC3 cells [4]", "value": 16.4, "unit": "%"}, {"measurement": "fold induction at 1 µM", "setting": "PC-3MLN4 cells", "value": 2.34}, {"measurement": "fold induction at 1 µM", "setting": "AT6.1 cells", "value": 2.1}, {"measurement": "Normalized mitotic index (6 hours) DU145", "setting": "DU145 cells [5]", "value": 3.52}, {"measurement": "cytotoxic effect against PC3-TR (PC-3TxR)", "setting": "[6]", "value": "refractory"}, {"measurement": "cytotoxic effect against PC3-TR (PC-3TxR)", "setting": "[6]; listed as taxol", "value": "less effective"}, {"measurement": "Normalized mitotic index (6 hours) PC3", "setting": "PC3 cells [7]", "value": 1.32}, {"measurement": "EC50", "setting": "[8]; Fa 0.50, listed as Tax", "value": 0.937, "unit": "µM"}, {"measurement": "EC50", "setting": "[8]; Fa 0.50", "value": 0.936, "unit": "µM"}, {"measurement": "EC50", "setting": "[8]; Fa 0.60", "value": 1.392, "unit": "µM"}, {"measurement": "percent increase in life span (ILS %)", "setting": "[9]", "value": 30.2, "unit": "%"}, {"measurement": "Normalized mitotic index (6 hours) DU145-TR", "setting": "DU145-TR cells [10]", "value": 0.86}, {"measurement": "% Apoptotic cells (72 hours) DU145-TR", "setting": "DU145-TR cells [11]", "value": 11.5, "unit": "%"}, {"measurement": "% Apoptotic cells (72 hours) PC3-TR", "setting": "PC3-TR cells [12]", "value": 8.9, "unit": "%"}]}
